Experiments:
BT-549 [1] = experiment: normalised viability (% of control), CellTiter-Blue; higher = more viable cells (about 100 = DMSO control); settings: incubation time: 72 h
Procedure, shortened: (§1)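 The reported figure is normalised viability at a single listed concentration of the series. Breast cancer cell lines (20 µl suspension) went onto 384-well plates holding compound in 5 µl medium for 72 h. CellTiter-Blue (2.5 µl, 2 h, 37 °C) was read by fluorescence at 560/590 nm, and each plate was scaled to vehicle at 100 and a positive kill control at 0.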

BT-474 [2] = experiment: as above; settings: incubation time: 72 h
Procedure, shortened: as §1

CAL-51 [3] = experiment: as above; settings: incubation time: 72 h
Procedure, shortened: as §1

MFM-223 [4] = experiment: as above; settings: incubation time: 72 h
Procedure, shortened: as §1

HCC1937 [5] = settings: 72 h
Procedure, shortened: (§2)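 Compound dissolved in 5 µl medium was placed in 384-well plates before 20 µl of breast cancer cell suspension was added, and the plates were incubated for 72 h. Cells then received 2.5 µl CellTiter-Blue for 2 h at 37 °C, and fluorescence was read at 560/590 nm. EC50 values come from percent-inhibition dose-response fits that were censored at the highest concentration, with plates normalised to vehicle and a positive kill control and rows with a zero drug sensitivity score excluded.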

Hs578T [6] = settings: 72 h
Procedure, shortened: as §2

MDA-MB-231 [7] = settings: 72 h
Procedure, shortened: as §2

CAL-120 [8] = settings: 72 h
Procedure, shortened: as §2

BT-549 [9] = settings: 72 h
Procedure, shortened: as §2

MDA-MB-468 [10] = settings: 72 h
Procedure, shortened: as §2

MDA-MB-436 = settings: 72 h
Procedure, shortened: as §2

MFM-223 [11] = settings: 72 h
Procedure, shortened: as §2

BT-474 [12] = settings: 72 h
Procedure, shortened: as §2

SK-BR-3 [13] = settings: 72 h
Procedure, shortened: as §2

HCC1937 [14] = experiment: normalised response (% of control), CellTiter-Glo; higher = more viable cells (100 = DMSO, 0 = benzethonium chloride kill control); settings: incubation time: 72 h
Procedure, shortened: (§3)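 Each value is the plate-normalised signal at one concentration of the series. Breast cancer cell lines (20 µl suspension) were incubated 72 h in 384-well plates with compound at 5 concentrations in 10-fold steps over a compound-specific 10,000-fold range. CellTox Green and then CellTiter-Glo were read, and each plate was scaled to 0.1 % DMSO (100) and a positive kill control (0).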

Hs578T [15] = experiment: as above; settings: incubation time: 72 h
Procedure, shortened: as §3

HCC1143 = experiment: as above; settings: incubation time: 72 h
Procedure, shortened: as §3

HCC1599 = experiment: as above; settings: incubation time: 72 h
Procedure, shortened: as §3

MDA-MB-453 = experiment: as above; settings: incubation time: 72 h
Procedure, shortened: as §3

MDA-MB-231 [16] = experiment: as above; settings: incubation time: 72 h
Procedure, shortened: as §3

CAL-120 [17] = experiment: as above; settings: incubation time: 72 h
Procedure, shortened: as §3

DU-4475 = experiment: as above; settings: incubation time: 72 h
Procedure, shortened: as §3

CAL-85-1 = experiment: as above; settings: incubation time: 72 h
Procedure, shortened: as §3

BT-549 [18] = experiment: as above; settings: incubation time: 72 h
Procedure, shortened: as §3

BT-474 [19] = experiment: as above; settings: incubation time: 72 h
Procedure, shortened: as §3

CAL-148 = experiment: as above; settings: incubation time: 72 h
Procedure, shortened: as §3

MCF-10A = experiment: as above; settings: incubation time: 72 h
Procedure, shortened: as §3

SK-BR-3 [20] = experiment: as above; settings: incubation time: 72 h
Procedure, shortened: as §3

HDQ-P1 = experiment: as above; settings: incubation time: 72 h
Procedure, shortened: as §3

MDA-MB-468 [21] = experiment: as above; settings: incubation time: 72 h
Procedure, shortened: as §3

CAL-51 [22] = experiment: as above; settings: incubation time: 72 h
Procedure, shortened: as §3

MFM-223 [23] = experiment: as above; settings: incubation time: 72 h
Procedure, shortened: as §3

Row | Compound | normalised viability (BT-549 [1]; 10 nM) | normalised viability (BT-549 [1]; 1000 nM) | normalised viability (BT-549 [1]; 10000 nM) | normalised viability (BT-474 [2]; 10 nM) | normalised viability (BT-474 [2]; 1000 nM) | normalised viability (BT-474 [2]; 10000 nM) | normalised viability (CAL-51 [3]; 3 nM) | normalised viability (CAL-51 [3]; 30 nM) | normalised viability (CAL-51 [3]; 100 nM) | normalised viability (MFM-223 [4]; 10 nM) | normalised viability (MFM-223 [4]; 1000 nM) | normalised viability (MFM-223 [4]; 10000 nM) | EC50, CellTiter-Blue viability (HCC1937 [5]) | EC50, CellTiter-Blue viability (Hs578T [6]) | EC50, CellTiter-Blue viability (MDA-MB-231 [7]) | EC50, CellTiter-Blue viability (BT-549 [9]) | EC50, CellTiter-Blue viability (MDA-MB-468 [10]) | EC50, CellTiter-Blue viability (MDA-MB-436) | EC50, CellTiter-Blue viability (BT-474 [12]) | EC50, CellTiter-Blue viability (SK-BR-3 [13]) | also measured
1 | CC(C)C[C@@H](C(=O)N[C@H](C(=O)OC1CCCC1)c1ccccc1)[C@H](O)C(=O)NO [Tosedostat] | 85% | 63% | 39.1% | 107% | 101% | 105% | 110% | 111% | 86.5% | 91.6% | 64.1% | 32% | 121 nM | 2140 nM | 92.4 nM | 273 nM | 35.9 nM | 2740 nM |  |  | EC50, CellTiter-Blue viability (CAL-120 [8]): 16.7 nM; EC50, CellTiter-Blue viability (MFM-223 [11]): 2230 nM
2 | COc1cc2/c(=N/c3ccc(Br)cc3F)nc[nH]c2cc1OCC1CCN(C)CC1 [Vandetanib] | 102% | 85.2% | 22.4% | 92.7% | 78.8% | 8.47% | 105% | 107% | 92.3% | 100% | 61.6% | 30.6% |  | 2060 nM | 2480 nM | 3750 nM | 3330 nM | 138 nM | 2290 nM | 4330 nM | EC50, CellTiter-Blue viability (CAL-120 [8]): 5260 nM; EC50, CellTiter-Blue viability (MFM-223 [11]): 926 nM
3 | Cc1ccc(NC(=O)c2ccc(CN3CCN(C)CC3)cc2)cc1Nc1nc(-c2cccnc2)cs1 [Masitinib] | 94.2% | 100% | 51.2% | 105% | 101% | 50.1% | 106% | 100% | 97.5% | 89.2% | 93.7% | 92.5% |  |  |  |  |  | > 10000 nM |  | 6500 nM | 
4 | O=C(Nc1cccnc1)N1CCC(Cc2cccc(Oc3ccc(C(F)(F)F)cn3)c2)CC1 [PF-3845] | 93.3% | 86.9% | 48.6% | 128% | 111% | 40.5% | 109% | 98.1% | 103% | 91.8% | 95.5% | 74.1% |  | 2570 nM |  | 1550 nM | > 10000 nM |  | 8600 nM |  | 
5 | N#Cc1ccc(COC[C@H]2O[C@@H](n3c(NCc4ccc(Cl)c(Cl)c4)nc4c(N)ncnc43)[C@H](O)[C@@H]2O)cc1 | 87.7% | 84% | 34.4% | 135% | 95% | 89.5% | 118% | 110% | 110% | 93% | 101% | 93.6% | 619 nM |  | 2870 nM | 5190 nM | 6910 nM | 1390 nM |  | 6100 nM | 
6 | S=P(N1CC1)(N1CC1)N1CC1 [Thio-TEPA] |  |  | 119% |  |  | 114% |  | 95.4% |  |  |  | 106% |  |  | 12000 nM |  |  |  |  |  | normalised viability (BT-549 [1]; 100 nM): 95.2%; normalised viability (BT-549 [1]; 100000 nM): 116%; normalised viability (BT-474 [2]; 100 nM): 119%; normalised viability (BT-474 [2]; 100000 nM): 115%; normalised viability (CAL-51 [3]; 300 nM): 97.1%; normalised viability (CAL-51 [3]; 1000 nM): 97.4%; normalised viability (MFM-223 [4]; 100 nM): 105%; normalised viability (MFM-223 [4]; 100000 nM): 104%
7 | O=P1(N(CCCl)CCCl)NCCCO1 (stereo unspecified) [Cyclophosphamide] |  |  |  |  |  |  |  |  |  |  |  |  |  |  |  |  |  | > 40000 nM |  |  | normalised viability (BT-549 [1]; 40 nM): 94.3%; normalised viability (BT-549 [1]; 4000 nM): 94.9%; normalised viability (BT-549 [1]; 40000 nM): 95.2%; normalised viability (BT-474 [2]; 40 nM): 121%; normalised viability (BT-474 [2]; 4000 nM): 119%; normalised viability (BT-474 [2]; 40000 nM): 127%; normalised viability (CAL-51 [3]; 12 nM): 111%; normalised viability (CAL-51 [3]; 120 nM): 99%; normalised viability (CAL-51 [3]; 400 nM): 111%; normalised viability (MFM-223 [4]; 40 nM): 92.1%; normalised viability (MFM-223 [4]; 4000 nM): 98.9%; normalised viability (MFM-223 [4]; 40000 nM): 98.5%
8 | COCC1(CO)C(=O)C2CCN1CC2 (stereo unspecified) [Prima-1 Met] | 105% | 87.8% | 109% | 109% | 98.5% | 40.4% | 93.7% | 93.2% | 96.4% | 103% | 91.3% | 111% | 476 nM | > 10000 nM |  |  |  |  | 4530 nM |  | 
9 | CC(C)C[C@@H](C(=O)N[C@H](C(=O)OC1CCCC1)c1ccccc1)[C@H](O)C(=O)NO [Tosedostat] (10000 nM) |  |  |  |  |  |  |  |  |  |  |  |  |  |  |  |  |  |  |  |  | normalised response (HCC1937 [14]): 60.4%; normalised response (Hs578T [15]): 63.1%; normalised response (HCC1143): 55.1%; normalised response (HCC1599): 89%; normalised response (MDA-MB-453): 47.6%; normalised response (MDA-MB-231 [16]): 35.7%; normalised response (CAL-120 [17]): 47.9%; normalised response (DU-4475): 87.6%; normalised response (CAL-85-1): 36.6%; normalised response (BT-549 [18]): 42.7%; normalised response (BT-474 [19]): 24.8%; normalised response (CAL-148): 67.1%; normalised response (MCF-10A): 76.5%; normalised response (SK-BR-3 [20]): 74%; normalised response (HDQ-P1): 59.9%; normalised response (MDA-MB-468 [21]): 24.6%; normalised response (CAL-51 [22]): 71.9%; normalised response (MFM-223 [23]): 55.9%
10 | Cc1[nH]c2ccccc2c1CCNCc1ccc(/C=C/C(=O)NO)cc1 [Panobinostat] (1000 nM) |  |  |  |  |  |  |  |  |  |  |  |  |  |  |  |  |  |  |  |  | normalised response (HCC1937 [14]): 20.7%; normalised response (Hs578T [15]): 5.17%; normalised response (HCC1143): 13.4%; normalised response (HCC1599): 6.35%; normalised response (MDA-MB-453): 2.01%; normalised response (MDA-MB-231 [16]): 6.11%; normalised response (CAL-120 [17]): 9.89%; normalised response (DU-4475): 13.9%; normalised response (CAL-85-1): 3.87%; normalised response (BT-549 [18]): 14.4%; normalised response (BT-474 [19]): 7.51%; normalised response (CAL-148): 0.3%; normalised response (MCF-10A): 11%; normalised response (SK-BR-3 [20]): 0.27%; normalised response (HDQ-P1): 26.4%; normalised response (MDA-MB-468 [21]): 7.12%; normalised response (CAL-51 [22]): 8.29%; normalised response (MFM-223 [23]): 29.4%

— the supplement of paper PMC4862054
